Publication PMC7356613, “Unsymmetrically-Substituted 5,12-dihydrodibenzo[b,f][1,4]diazocine-6,11-dione Scaffold—A Useful Tool for Bioactive Molecules Design” (Molecules, 2020)
Where two headings read alike, the source gives them in different places.

Tests used:
[1] = test system: EUFA30 cells (non-cancerous human fibroblasts); test: Alamar Blue cytotoxicity assay, EUFA30; format: cell-based; settings: Fibroblast; for inhibition at 300 µM: bracketed values, read-out: proliferation inhibition expressed as a percentage at highest concentration used
Method: (§1) HeLa, U87, BICR18, EUFA30 cell lines were cultured in DMEM medium (Life Technology) supplemented with 10% fetal bovine serum (Life Technology) and 0.1% antibiotics, penicillin and streptomycin (Life Technology). Cells were grown in a humidified atmosphere of CO2/air (5/95%) at 37 °C.
(§2) Exponentially growing cells were seeded onto a 96-well plate at the density of 2 × 10^3 cells/well, cultured for 18 h, and treated with newly synthesized derivatives at concentrations 1–300 µM, or with DMSO as a control, for 24 or 48 h. Alamar Blue (Invitrogen) was added accordingly to manufacturer protocol. After 4 h, light emission at 590 nm was measured with excitation at 560 nm using a scanning multiwell spectrophotometer (DTX 880, Beckman Coulter). The experiments were carried out at least three times with three replicates for each inhibitor concentration. After background subtraction, inhibition rate, IC50 was calculated as the concentration of the component inhibiting cell growth by 50%. All the calculations were performed using Origin 9.0 software.

[2] = test system: HeLa cells (cervix adenocarcinoma); test: Alamar Blue cytotoxicity assay, HeLa; format: cell-based; settings: Homo sapiens; for IC50: 24 h of treatment, read-out: IC50 based on survival of cells
Method: as §1, §2

[3] = test system: BICR18 cells (laryngeal squamous cell carcinoma); test: Alamar Blue cytotoxicity assay, BICR18; format: cell-based; settings: for IC50: read-out: IC50 based on survival of cells
Method: as §1, §2

[4] = test system: U87 cells (human primary glioblastoma); test: Alamar Blue cytotoxicity assay, U87; format: cell-based; settings: U-87 MG; for inhibition at 300 µM: bracketed values, read-out: proliferation inhibition expressed as a percentage at highest concentration used
Method: as §1, §2

EUFA30 cells = test: Annexin V-FITC / propidium iodide flow cytometry, EUFA30; format: cell-based, human; settings: EUFA30, 200 µM, 24 h; for dead cell fraction: early apoptosis: non-treated control 0.3%; for dead cell fraction: late apoptosis: non-treated control 0.4%; for dead cell fraction: necrosis: non-treated control 5.7%
Method: as §1
(§3) The Annexin V-FITC apoptosis detection kit (BD Biosciences) was used to detect apoptosis by flow cytometry. Cells were seeded at Petri dishes, cultured for 18 h with tested agents applied for 24 h. DMSO was added as the non-treated control and camptothecin (CPT) as the positive control. Subsequently, cells were washed with PBS, resuspended in binding buffer at a concentration of 2 × 10^6 cells/mL, and anti-Annexin V FITC-conjugated antibody and propidium iodide were added to 100 µL aliquots. The mixtures were incubated for 15 min at room temperature, supplemented with binding buffer to 500 µL and processed by BD FACSCalibur (BD Biosciences). Data were analyzed in Flowing Software version 2.5.1 (Flowing Software, http://www.uskonaskel.fi/flowingsoftware).

HeLa cells = test: Annexin V-FITC / propidium iodide flow cytometry, HeLa; format: cell-based; settings: 200 µM, 24 h, non-treated control 5.4%
Method: as §1, §3

[5] = test system: EUFA30, HeLa, BICR18, U87 cells; test: Alamar Blue cytotoxicity assay, statements over all tested cell lines; format: cell-based; settings: Homo sapiens, concentrations 1-300 µM, group range = lowest to highest value, read-out: IC50 across the tested cell lines
Method: as §1, §2

CCOC(=O)CN1C(=O)c2cc(Cl)c(Cl)cc2C(=O)N(C)c2ccccc21 [Compound 3n, ethyl 2-(8,9-dichloro-12-methyl-6,11-dioxo-11,12-dihydrodibenzo[b,f][1,4]diazocin-5(6H)-yl)acetate] showed an inhibition at 300 µM ([1]; EUFA30, 24 h) of 41.5%, an IC50 [2] of 311 ± 14.1 µM and an inhibition at 300 µM ([3]; BICR18, 24 h, 300 µM, bracketed values, read-out: proliferation inhibition expressed as a percentage at highest concentration used) of 20.9%. For the same compound, the inhibition at 300 µM ([4]; U87, 24 h) was 30.7%, the “dead cell fraction: early apoptosis” value (EUFA30 cells) was 7.8% and the “dead cell fraction: late apoptosis” value (EUFA30 cells) was 1.4%. For the same compound, the “dead cell fraction: necrosis” value (EUFA30 cells) was 1.9%, the “number of necrotic cells” value (HeLa cells) was 11.3% and the IC50 [5] was 93.7 to 323 µM.

With CC(=O)N1C(=O)c2ccccc2C(=O)N(Cc2ccccc2)c2ccccc21 [Compound 3o, 5-acetyl-12-benzyl-5,12-dihydrodibenzo[b,f][1,4]diazocine-6,11-dione] the IC50 ([1]; EUFA30, 24 h of treatment, read-out: IC50 based on survival of cells) was 155 ± 14.6 µM, the inhibition at 300 µM ([1]; EUFA30, 48 h) was 41.8% and the IC50 [2] was 169 ± 13.4 µM. For the same compound, the inhibition at 300 µM ([2]; 48 h, 300 µM, bracketed values, read-out: proliferation inhibition expressed as a percentage at highest concentration used) was 33.4%, the IC50 ([3]; BICR18, 24 h of treatment) was 121 ± 11.4 µM and the IC50 ([3]; BICR18, 48 h of treatment, N.A. = not active) was 294 ± 3.2 µM. For the same compound, the IC50 ([4]; U87, 24 h of treatment, read-out: IC50 based on survival of cells) was 240 ± 6.1 µM, the inhibition at 300 µM ([4]; U87, 48 h) was 33.8% and the “dead cell fraction: early apoptosis” value (EUFA30 cells) was 9.5%. For the same compound, the “dead cell fraction: late apoptosis” value (EUFA30 cells) was 6.4%, the “dead cell fraction: necrosis” value (EUFA30 cells) was 0.8% and the “number of necrotic cells” value (HeLa cells) was 27.7%. The IC50 [5] was 93.7 to 323 µM.
